Data taken from the NIST ThermoML archive (doi:10.1016/j.jct.2015.03.019).
Where “and” joins values, the source holds several entries; their conditions need not be identical. Equal values may be shown once.

Assay: molar heat capacity at constant pressure
Settings: 101.33 kPa, Small (less than 1 g) adiabatic calorimetry

CC(C)(C)c1ccc(Oc2ccccc2)cc1 [4-tert-butylphenyl phenyl ether]
molar heat capacity at constant pressure
Settings | Crystal | Liquid
120 K | 144.42 J/K/mol | –
120.73 K | 145 J/K/mol | –
121.96 K | 146.09 J/K/mol | –
123.18 K | 147.08 J/K/mol | –
124.42 K | 148.25 J/K/mol | –
125.65 K | 149.33 J/K/mol | –
126.9 K | 150.41 J/K/mol | –
128.13 K | 151.57 J/K/mol | –
129.37 K | 152.57 J/K/mol | –
130 K | 153.32 J/K/mol | –
130.6 K | 153.82 J/K/mol | –
131.84 K | 154.9 J/K/mol | –
133.08 K | 155.9 J/K/mol | –
134.32 K | 157.23 J/K/mol | –
135.56 K | 158.22 J/K/mol | –
136.81 K | 159.31 J/K/mol | –
138.05 K | 160.3 J/K/mol | –
139.3 K | 161.47 J/K/mol | –
140 K | 161.97 J/K/mol | –
140.55 K | 162.46 J/K/mol | –
141.8 K | 163.38 J/K/mol | –
143.04 K | 164.54 J/K/mol | –
144.3 K | 165.79 J/K/mol | –
145.55 K | 166.71 J/K/mol | –
146.83 K | 167.95 J/K/mol | –
148.09 K | 169.12 J/K/mol | –
149.35 K | 169.95 J/K/mol | –
150 K | 170.61 J/K/mol | –
150.61 K | 171.11 J/K/mol | –
151.87 K | 172.28 J/K/mol | –
153.13 K | 173.44 J/K/mol | –
154.39 K | 174.44 J/K/mol | –
155.66 K | 175.27 J/K/mol | –
156.93 K | 176.43 J/K/mol | –
158.2 K | 177.6 J/K/mol | –
159.47 K | 178.43 J/K/mol | –
160 K | 179.01 J/K/mol | –
160.74 K | 179.34 J/K/mol | –
162.02 K | 180.67 J/K/mol | –
163.29 K | 181.92 J/K/mol | –
164.57 K | 182.92 J/K/mol | –
165.84 K | 184.08 J/K/mol | –
167.17 K | 185.33 J/K/mol | –
168.45 K | 186.16 J/K/mol | –
169.73 K | 187.16 J/K/mol | –
170 K | 187.41 J/K/mol | –
171.02 K | 188.24 J/K/mol | –
172.31 K | 189.4 J/K/mol | –
173.6 K | 190.48 J/K/mol | –
174.89 K | 191.57 J/K/mol | –
176.18 K | 192.9 J/K/mol | –
177.47 K | 193.64 J/K/mol | –
178.77 K | 194.81 J/K/mol | –
180 K | 195.72 J/K/mol | –
180.07 K | 195.97 J/K/mol | –
181.37 K | 197.05 J/K/mol | –
183.98 K | 199.21 J/K/mol | –
185.29 K | 200.46 J/K/mol | –
186.59 K | 201.63 J/K/mol | –
187.96 K | 202.71 J/K/mol | –
189.28 K | 203.54 J/K/mol | –
190 K | 204.12 J/K/mol | –
190.59 K | 204.62 J/K/mol | –
191.9 K | 205.95 J/K/mol | –
193.22 K | 207.03 J/K/mol | –
194.54 K | 208.28 J/K/mol | –
195.86 K | 209.36 J/K/mol | –
197.19 K | 210.52 J/K/mol | –
198.51 K | 211.69 J/K/mol | –
199.84 K | 212.52 J/K/mol | –
200 K | 212.52 J/K/mol | –
202.54 K | 214.35 J/K/mol | –
203.91 K | 215.51 J/K/mol | –
205.26 K | 216.84 J/K/mol | –
206.62 K | 217.92 J/K/mol | –
209.43 K | 220.42 J/K/mol | –
210 K | 221.08 J/K/mol | –
212.14 K | 222.5 J/K/mol | –
213.5 K | 223.66 J/K/mol | –
214.85 K | 224.82 J/K/mol | –
216.21 K | 225.99 J/K/mol | –
218.93 K | 228.56 J/K/mol | –
220 K | 229.81 J/K/mol | –
220.29 K | 230.06 J/K/mol | –
221.64 K | 231.06 J/K/mol | –
222.99 K | 232.06 J/K/mol | –
224.34 K | 233.39 J/K/mol | –
225.69 K | 234.72 J/K/mol | –
227.04 K | 235.72 J/K/mol | –
228.4 K | 237.05 J/K/mol | –
229.74 K | 238.29 J/K/mol | –
230 K | 238.71 J/K/mol | –
231.18 K | 240.12 J/K/mol | –
236.59 K | 245.11 J/K/mol | –
237.93 K | 246.03 J/K/mol | –
239.28 K | 247.27 J/K/mol | –
240 K | 247.77 J/K/mol | –
240.62 K | 248.44 J/K/mol | –
241.97 K | 249.68 J/K/mol | –
243.31 K | 250.76 J/K/mol | –
244.65 K | 252.18 J/K/mol | –
248.66 K | 256.25 J/K/mol | –
250 K | 257.67 J/K/mol and 257.5 J/K/mol | –
251.33 K | 258.91 J/K/mol | –
252.75 K | 260.49 J/K/mol | –
254.09 K | 261.41 J/K/mol | –
255.42 K | 262.82 J/K/mol | –
256.75 K | 264.07 J/K/mol | –
260 K | 267.48 J/K/mol | –
260.74 K | 268.39 J/K/mol | –
262.06 K | 269.56 J/K/mol | –
263.38 K | 270.8 J/K/mol | –
264.71 K | 272.05 J/K/mol | –
266.03 K | 273.38 J/K/mol | –
267.35 K | 274.54 J/K/mol | –
268.67 K | 275.96 J/K/mol | –
269.98 K | 276.87 J/K/mol | –
270 K | 277.2 J/K/mol | –
271.3 K | 278.45 J/K/mol | –
272.62 K | 279.7 J/K/mol | –
276.62 K | 283.69 J/K/mol | –
277.92 K | 285.02 J/K/mol | –
279.22 K | 286.27 J/K/mol | –
280 K | 287.1 J/K/mol | –
280.53 K | 287.51 J/K/mol | –
281.83 K | 289.01 J/K/mol | –
283.13 K | 290.09 J/K/mol | –
284.43 K | 291.09 J/K/mol | –
288.3 K | 295.16 J/K/mol | –
289.59 K | 296.49 J/K/mol | –
290 K | 296.41 J/K/mol | –
290.87 K | 297.33 J/K/mol | –
292.15 K | 298.24 J/K/mol | –
293.43 K | 298.91 J/K/mol | –
294.71 K | 299.82 J/K/mol | –
298.15 K | 302.98 J/K/mol | –
299.77 K | 304.06 J/K/mol | –
300 K | 304.48 J/K/mol | –
301.26 K | 305.47 J/K/mol | –
302.92 K | 307.05 J/K/mol | –
304.58 K | 308.88 J/K/mol | –
306.25 K | 310.3 J/K/mol | –
309.6 K | 312.87 J/K/mol | –
310 K | 313.21 J/K/mol | –
311.29 K | 315.62 J/K/mol | –
314.7 K | 320.94 J/K/mol | –
316.41 K | 322.19 J/K/mol | –
318.13 K | 325.68 J/K/mol | –
319.86 K | 330.17 J/K/mol | –
320 K | 321.69 J/K/mol | –
321.61 K | 331 J/K/mol | –
327.84 K | 328.26 J/K/mol | 384.38 J/K/mol
330 K | – | 386.29 J/K/mol
334.3 K | – | 391.36 J/K/mol
340 K | – | 394.94 J/K/mol
340.65 K | – | 394.52 J/K/mol
347.01 K | – | 398.93 J/K/mol
350 K | – | 403.25 J/K/mol
351.17 K | – | 405 J/K/mol
353.12 K | – | 407.24 J/K/mol
355.08 K | – | 408.24 J/K/mol
357.06 K | – | 409.82 J/K/mol
359.07 K | – | 410.65 J/K/mol
360 K | – | 411.57 J/K/mol
361.08 K | – | 411.57 J/K/mol
363.12 K | – | 412.65 J/K/mol
365.18 K | – | 413.4 J/K/mol
367.25 K | – | 414.06 J/K/mol
369.35 K | – | 414.89 J/K/mol
370 K | – | 414.89 J/K/mol
371.48 K | – | 415.81 J/K/mol
